Assay results reported in PMC6917776, “Discovery of a chemical probe for PRDM9” (Nature Communications, 2019).

Tested on: H3K4me3 at known PRDM9 binding loci and control TSS loci
Experiment: ChIP-qPCR of H3K4me3 in PRDM9-transfected HEK293T cells
Assay type: cell-based, human
Settings: for H3K4me3 ChIP-qPCR 2^-dCq (IP-Input) / 2^-dCq (H3K4me3 IP relative to H3): Replicate 2; for H3K4me3 ChIP-qPCR 2^-dCq (IP-Input): H3K4me3 antibody relative to H3; for <Cq>: mean of two wells, Antibody H3K4me3, Plasmid PRDM9WT, Figure 7 Replicate 2
Experimental: ChIP-qPCR assays were then conducted on known PRDM9 binding loci[26]. Ectopic expression of PRDM9^WT increased trimethylation of H3K4 (H3K4me3) at previously described PRDM9-specific intragenic and intergenic regions[26] (Fig. 7; Supplementary Fig. 12). […] The observed increases in H3K4me3 levels at intragenic and intergenic regions are therefore due directly to PRDM9 PR domain-dependent methylation activity, rather than through recruitment of other H3K4 methyltransferases or other indirect mechanisms.
ChIP qPCR analyses of H3K4me3 methylation levels of known PRDM9-bound loci and control loci. […] Concentrations used (µM) are indicated below each plot. (a–d) represent reported loci of PRDM9 methylation; (e, f) are transcriptional start sites (TSSs) which are not known loci of PRDM9 methylation. Data are normalized to total H3 and are presented as the mean ± upper and lower limits from two replicates. Representative plots of two independent experiments are shown in this figure. The coordinates and the genomic features associated with the assayed loci are indicated above each plot. Left Tailed Student's t-tests were performed by comparing DMSO (0 µM) treated cells to compound treated cells that have been transfected with the same plasmids. *p-value < 0.05 and **p-value < 0.01. Note that here we show a representative of two independent experiments (mean ± s.d of technical replicates) for our ChIP-qPCR experiments. Data obtained using this technique are inherently noisy due to stochastic differences in gene activity/histone positioning. Data are thus typically presented as representative rather than averaged. Source data are provided as a Source Data file.
HEK293T cells were transfected with 37.5 μg empty pcDNA3.1(+) vector (Invitrogen), or the same vector expressing either wild-type PRDM9 (PRDM9^WT) or a catalytically dead PRDM9 mutant (PRDM9^Mut) and 75 μL of Lipofectamine 2000 (Invitrogen) in 6 mL of Opti-MEM (GIBCO) for 48 h. […] ChIP assays were then performed as previously described. Briefly, cells were fixed in 1% formaldehyde and the fixation reaction was quenched in a final concentration of 0.1 M glycine. Cell pellets were first lysed in LB1 (50 mM HEPES-KOH pH 7.5, 140 mM NaCl, 1 mM EDTA, 10% Glycerol, 0.5% Igepal, 0.25% TritonX), washed once in LB2 Buffer (10 mM Tris-HCl pH 8, 200 mM NaCl, 1 mM EDTA, 0.5 mM EGTA) and finally sonicated in LB3 buffer (10 mM Tris-HCl pH 8, 100 mM NaCl, 1 mM EDTA, 0.5 mM EGTA, 0.1% Sodium deoxycholate, 0.5% N-laurosylsarcosine) using a bioruptor (Diagenode). Thereafter, 50 μg of chromatin was subjected to ChIP using the following antibodies purchased from Abcam: α-H3K4me3 (1:200, ab8580, lot:GR3207339-1) and α-H3 (1:250, ab1791, lot:GR300978-4). After extensive washing in RIPA wash buffer (50 mM HEPES-KOH pH 7.6, 100 mM LiCl, 1 mM EDTA, 1% Igepal, 0.7% Sodium Deoxycholate), DNA was eluted from beads. The eluted DNA was treated with RNase A and Proteinase K and purified using the QIAGEN PCR purification kit. qPCR was then carried out targeting the indicated loci (Supplementary Table 3). Upper and lower limits were defined by |2^−(dCq±s) − 2^−(∆Cq)|, where s = √((Standard deviation of Input Cq)^2 + (Standard deviation of Target Cq)^2). […]
formation. ChIP qPCR analyses of H3K4me3 methylation levels at known PRDM9-bound and control loci. Cells transfected with empty vector (negative control) or vectors overexpressing either wild-type PRDM9 (PRDM9 WT) or catalytically dead PRDM9 (PRDM9 MUT) were […]
Panels a-d represent reported loci of […]
(1 picture or pasted object on this page, not shown here)
PRDM9 methylation; e-f are TSSs which are not known sites of PRDM9 methylation. Data are normalized to total H3 and are presented as the mean ± upper and lower limits from two […]

COc1cc(OC)cc(-c2noc(N3CCN(C)C4(CCN(c5ccnc(C)c5)CC4)C3)n2)c1 [MRK-740]
H3K4me3 ChIP-qPCR 2^-dCq (IP-Input) (chr2:40281930-40282015 Intragenic (SLC8A1-AS1), Figure 7 C, PRDM9WT, Drug Conc. 10): 2.181 | 2^-dCq (H3K4me3 IP relative to H3) (chr2:40281930-40282015 Intragenic (SLC8A1-AS1), Empty Vector, Drug Conc. 5, Figure S12 C): 0.9795 | 2^-dCq (H3K4me3 IP relative to H3) (chr2:40281930-40282015 Intragenic (SLC8A1-AS1), PRDM9MUT, Drug Conc. 5, Figure S12 C): 0.2048 | 2^-dCq (H3K4me3 IP relative to H3) (chr2:40281930-40282015 Intragenic (SLC8A1-AS1), PRDM9WT, Drug Conc. 5, Figure S12 C): 5.934 | H3K4me3 ChIP-qPCR 2^-dCq (IP-Input) (chr2:128811847-128811944 (Intergenic), Figure 7 A, Empty Vector, Drug Conc. 2.5): 1.167 | H3K4me3 ChIP-qPCR 2^-dCq (IP-Input) (chr2:128811847-128811944 (Intergenic), Figure 7 A, Empty Vector, Drug Conc. 5): 1.563 | H3K4me3 ChIP-qPCR 2^-dCq (IP-Input) (chr2:128811847-128811944 (Intergenic), Figure 7 A, Empty Vector, Drug Conc. 10): 1.267 | H3K4me3 ChIP-qPCR 2^-dCq (IP-Input) (chr2:128811847-128811944 (Intergenic), Figure 7 A, PRDM9WT, Drug Conc. 2.5): 4.007 | H3K4me3 ChIP-qPCR 2^-dCq (IP-Input) (chr2:128811847-128811944 (Intergenic), Figure 7 A, PRDM9WT, Drug Conc. 5): 4.852 | H3K4me3 ChIP-qPCR 2^-dCq (IP-Input) (chr2:128811847-128811944 (Intergenic), Figure 7 A, PRDM9WT, Drug Conc. 10): 1.932 | 2^-dCq (H3K4me3 IP relative to H3) (chr2:128811847-128811944 (Intergenic), Empty Vector, Drug Conc. 5, Figure S12 A): 1.563 | 2^-dCq (H3K4me3 IP relative to H3) (chr2:128811847-128811944 (Intergenic), PRDM9MUT, Drug Conc. 5, Figure S12 A): 0.3928 | 2^-dCq (H3K4me3 IP relative to H3) (chr2:128811847-128811944 (Intergenic), PRDM9WT, Drug Conc. 5, Figure S12 A): 4.852 | 2^-dCq (H3K4me3 IP relative to H3) (chr3:165514798-165514911 Intragenic (BCHE), Empty Vector, Drug Conc. 5, Figure S12 D): 0.9187 | 2^-dCq (H3K4me3 IP relative to H3) (chr3:165514798-165514911 Intragenic (BCHE), PRDM9MUT, Drug Conc. 5, Figure S12 D): 0.2392 | 2^-dCq (H3K4me3 IP relative to H3) (chr3:165514798-165514911 Intragenic (BCHE), PRDM9WT, Drug Conc. 5, Figure S12 D): 7.878 | H3K4me3 ChIP-qPCR 2^-dCq (IP-Input) (chr8:49932778-49932856 (Intergenic), Figure 7 B, Empty Vector, Drug Conc. 2.5): 0.8281 | H3K4me3 ChIP-qPCR 2^-dCq (IP-Input) (chr8:49932778-49932856 (Intergenic), Figure 7 B, Empty Vector, Drug Conc. 5): 1.029 | H3K4me3 ChIP-qPCR 2^-dCq (IP-Input) (chr8:49932778-49932856 (Intergenic), Figure 7 B, Empty Vector, Drug Conc. 10): 0.9528 | H3K4me3 ChIP-qPCR 2^-dCq (IP-Input) (chr8:49932778-49932856 (Intergenic), Figure 7 B, PRDM9WT, Drug Conc. 2.5): 8.6274 | H3K4me3 ChIP-qPCR 2^-dCq (IP-Input) (chr8:49932778-49932856 (Intergenic), Figure 7 B, PRDM9WT, Drug Conc. 5): 4.182 | H3K4me3 ChIP-qPCR 2^-dCq (IP-Input) (chr8:49932778-49932856 (Intergenic), Figure 7 B, PRDM9WT, Drug Conc. 10): 1.779 | 2^-dCq (H3K4me3 IP relative to H3) (chr8:49932778-49932856 (Intergenic), Empty Vector, Drug Conc. 5, Figure S12 B): 1.029 | 2^-dCq (H3K4me3 IP relative to H3) (chr8:49932778-49932856 (Intergenic), PRDM9MUT, Drug Conc. 5, Figure S12 B): 0.2948 | 2^-dCq (H3K4me3 IP relative to H3) (chr8:49932778-49932856 (Intergenic), PRDM9WT, Drug Conc. 5, Figure S12 B): 4.182 | 2^-dCq (H3K4me3 IP relative to H3) (chr12:6643945-6644023 TSS (GAPDH), Empty Vector, Drug Conc. 5, Figure S12 E): 83.0384 | 2^-dCq (H3K4me3 IP relative to H3) (chr12:6643945-6644023 TSS (GAPDH), PRDM9MUT, Drug Conc. 5, Figure S12 E): 72.3311 | 2^-dCq (H3K4me3 IP relative to H3) (chr12:6643945-6644023 TSS (GAPDH), PRDM9WT, Drug Conc. 5, Figure S12 E): 130.72 | 2^-dCq (H3K4me3 IP relative to H3) (chr19:8510167-8510261 TSS (HNRNPM), Empty Vector, Drug Conc. 5, Figure S12 F): 107.435 | 2^-dCq (H3K4me3 IP relative to H3) (chr19:8510167-8510261 TSS (HNRNPM), PRDM9MUT, Drug Conc. 5, Figure S12 F): 76.5131 | 2^-dCq (H3K4me3 IP relative to H3) (chr19:8510167-8510261 TSS (HNRNPM), PRDM9WT, Drug Conc. 5, Figure S12 F): 143.684 | <Cq> (Drug Conc. 2.5): 20.8229 | <Cq> (Drug Conc. 5): 20.8538 | <Cq> (Drug Conc. 10): 21.2288
